The supplement of paper PMC13380429

Assays:
Settings in all cases: 72 h
Caco-2 [1] = assay: cell viability relative to DMSO; higher = less toxic
Calu-3 [2] = assay: as above
HepG2 [3] = assay: as above
U2OS [4] = assay: as above
Vero E6 [5] = assay: as above
Caco-2 [6] = assay: relative viability EC50 (midpoint between 100% and the lowest measured viability); higher = less toxic
Calu-3 [7] = assay: as above
HepG2 [8] = assay: as above
U2OS [9] = assay: as above
Vero E6 [10] = assay: as above
Caco-2 [11] = assay: drug sensitivity score (DSS) for viability; higher = more toxic; extreme values may be limits of the assay
Calu-3 [12] = assay: as above
HepG2 [13] = assay: as above
U2OS [14] = assay: as above
Vero E6 [15] = assay: as above

Row | Compound | cell viability (Caco-2 [1]; 1 nM) | cell viability (Caco-2 [1]; 10 nM) | cell viability (Caco-2 [1]; 100 nM) | cell viability (Caco-2 [1]; 1000 nM) | cell viability (Caco-2 [1]; 10000 nM) | cell viability (Calu-3 [2]; 1 nM) | cell viability (Calu-3 [2]; 10 nM) | cell viability (Calu-3 [2]; 100 nM) | cell viability (Calu-3 [2]; 1000 nM) | cell viability (Calu-3 [2]; 10000 nM) | cell viability (HepG2 [3]; 1 nM) | cell viability (HepG2 [3]; 10 nM) | cell viability (HepG2 [3]; 100 nM) | cell viability (HepG2 [3]; 1000 nM) | cell viability (HepG2 [3]; 10000 nM) | cell viability (U2OS [4]; 1 nM) | cell viability (U2OS [4]; 10 nM) | cell viability (U2OS [4]; 100 nM) | cell viability (U2OS [4]; 1000 nM) | cell viability (U2OS [4]; 10000 nM) | cell viability (Vero E6 [5]; 1 nM) | cell viability (Vero E6 [5]; 10 nM) | cell viability (Vero E6 [5]; 100 nM) | cell viability (Vero E6 [5]; 1000 nM) | cell viability (Vero E6 [5]; 10000 nM) | relative viability EC50 (Caco-2 [6]) | relative viability EC50 (Calu-3 [7]) | relative viability EC50 (HepG2 [8]) | relative viability EC50 (U2OS [9]) | relative viability EC50 (Vero E6 [10]) | drug sensitivity score (Caco-2 [11]) | drug sensitivity score (Calu-3 [12]) | drug sensitivity score (HepG2 [13]) | drug sensitivity score (U2OS [14]) | drug sensitivity score (Vero E6 [15])
1 | CO[C@@]1(NC(=O)C2SC(=C(C(N)=O)C(=O)O)S2)C(=O)N2C(C(=O)O)=C(CSc3nnnn3C)CS[C@@H]21 (stereo not given in full) [cefotetan] | 92.4% | 95.3% | 93.6% | 95.9% | 101% | 109% | 94.1% | 108% | 105% | 103% | 108% | 89.7% | 99.1% | 100% | 103% | 98.3% | 99.6% | 98.5% | 99.8% | 96.1% | 105% | 104% | 103% | 98.2% | 99.9% | > 10 µM | > 10 µM | > 10 µM | > 10 µM | > 10 µM | 0 | 0 | 0 | 0 | 0
2 | Cc1ccc(/C(=C\CN2CCCC2)c2cccc(/C=C/C(=O)O)n2)cc1 [acrivastine] | 87.6% | 92.3% | 95.4% | 86.8% | 115% | 98.2% | 98.1% | 104% | 116% | 99.1% | 102% | 98.2% | 102% | 98.3% | 95.6% | 100% | 103% | 98.4% | 102% | 103% | 98.1% | 87.9% | 99.8% | 85.3% | 112% | > 10 µM | > 10 µM | > 10 µM | > 10 µM | > 10 µM | 0 | 0 | 0 | 0 | 0
3 | Cc1nc(C)c(C)nc1C [chuanxiongzine] | 110% | 105% | 95.7% | 112% | 105% | 105% | 106% | 89.9% | 101% | 84.8% | 105% | 88.9% | 97.1% | 92% | 97.3% | 98.5% | 102% | 98.6% | 101% | 95.7% | 104% | 97.1% | 104% | 104% | 105% | > 10 µM | > 10 µM | > 10 µM | > 10 µM | > 10 µM | 0 | 0.2 | 0 | 0 | 0
